We go through 14 molecules from US12258327B2, “5-membered heteroaryl-containing aminopyridine compounds as EGFR inhibitors” (YUHAN CORPORATION, priority 2021, dated 2025).

Read-outs that look alike come from different tables or passages of the source. Some results are limits rather than exact numbers.

Experiment [1] addresses EGFR del19/T790M/C797S (Homo sapiens, UniProt P00533, C797S/DEL746-750/T790M). The experiment is described as follows: Biochemical EGFR kinase assay (Lance Ultra TR-FRET), triple mutant del19/T790M/C797S. In a few lines: (§1)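 Step 1: compound in kinase buffer, 0.003–10 μM. Step 2: kinase reaction 1 h at room temperature. Step 4: TR-FRET read at 615/665 nm; IC50 calculated.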

Experiment [2] concerns the target EGFR L858R/T790M/C797S (Homo sapiens, UniProt P00533, C797S/L858R/T790M). The experiment is described as follows: Biochemical EGFR kinase assay (Lance Ultra TR-FRET), triple mutant L858R/T790M/C797S. A digest of the protocol:
as §1
(In general: Time-resolved FRET reads energy transfer from a long-lived donor to a nearby acceptor.)

In experiment [3] the target is EGFR del19/C797S (Homo sapiens, UniProt P00533, C797S/DEL746-750). The experiment is described as follows: Biochemical EGFR kinase assay (Lance Ultra TR-FRET), double mutant del19/C797S. In a few lines: as §1
Experiment [4] addresses EGFR L858R/C797S (Homo sapiens, UniProt P00533, C797S/L858R). The experiment is described as follows: Biochemical EGFR kinase assay (Lance Ultra TR-FRET), double mutant L858R/C797S. In a few lines:
as §1

For experiment [5], the target named is EGFR wildtype (WT) (Homo sapiens, UniProt P00533). The experiment is described as follows: Biochemical EGFR kinase assay (Lance Ultra TR-FRET), wildtype. In a few lines:
as §1

[6] abbreviates: IC50 del19/T790M/C797S (nM) 100 μM ATP, 100 μM ATP.
The mark [7] stands for this setting: IC50 L858R/T790M/C797S (nM) 100 μM ATP, 100 μM ATP.
Setting [8] is: IC50 del19/C797S (nM) 100 μM ATP, 100 μM ATP.
Where [9] appears, read: IC50 L858R/C797S (nM) 100 μM ATP, 100 μM ATP.
Setting [10] is: IC50 WT (nM) 100 μM ATP, 100 μM ATP.
Setting [11] is: Km ATP, read-out: IC50 del19/T790M/C797S (nM) Km ATP.
Setting [12] is: Km ATP, read-out: IC50 L858R/T790M/C797S (nM) Km ATP.
Setting [13] is: Km ATP, read-out: IC50 del19/C797S (nM) Km ATP.
The mark [14] stands for this setting: Km ATP, read-out: IC50 L858R/C797S (nM) Km ATP.
Setting [15] is: Km ATP, read-out: IC50 WT (nM) Km ATP.
Where [16] appears, read: Km ATP, read-out: IC50 del19/T790M/C797S, Km ATP.
Setting [17] is: Km ATP, read-out: IC50 L858R/T790M/C797S, Km ATP.
[18] abbreviates: Km ATP, read-out: IC50 del19/C797S, Km ATP.
Where [19] appears, read: Km ATP, read-out: IC50 L858R/C797S, Km ATP.
Where [20] appears, read: Km ATP, read-out: IC50 WT, Km ATP.

EGFR L858R/C797S, sequence (P00533 25-1210 C797S/L858R): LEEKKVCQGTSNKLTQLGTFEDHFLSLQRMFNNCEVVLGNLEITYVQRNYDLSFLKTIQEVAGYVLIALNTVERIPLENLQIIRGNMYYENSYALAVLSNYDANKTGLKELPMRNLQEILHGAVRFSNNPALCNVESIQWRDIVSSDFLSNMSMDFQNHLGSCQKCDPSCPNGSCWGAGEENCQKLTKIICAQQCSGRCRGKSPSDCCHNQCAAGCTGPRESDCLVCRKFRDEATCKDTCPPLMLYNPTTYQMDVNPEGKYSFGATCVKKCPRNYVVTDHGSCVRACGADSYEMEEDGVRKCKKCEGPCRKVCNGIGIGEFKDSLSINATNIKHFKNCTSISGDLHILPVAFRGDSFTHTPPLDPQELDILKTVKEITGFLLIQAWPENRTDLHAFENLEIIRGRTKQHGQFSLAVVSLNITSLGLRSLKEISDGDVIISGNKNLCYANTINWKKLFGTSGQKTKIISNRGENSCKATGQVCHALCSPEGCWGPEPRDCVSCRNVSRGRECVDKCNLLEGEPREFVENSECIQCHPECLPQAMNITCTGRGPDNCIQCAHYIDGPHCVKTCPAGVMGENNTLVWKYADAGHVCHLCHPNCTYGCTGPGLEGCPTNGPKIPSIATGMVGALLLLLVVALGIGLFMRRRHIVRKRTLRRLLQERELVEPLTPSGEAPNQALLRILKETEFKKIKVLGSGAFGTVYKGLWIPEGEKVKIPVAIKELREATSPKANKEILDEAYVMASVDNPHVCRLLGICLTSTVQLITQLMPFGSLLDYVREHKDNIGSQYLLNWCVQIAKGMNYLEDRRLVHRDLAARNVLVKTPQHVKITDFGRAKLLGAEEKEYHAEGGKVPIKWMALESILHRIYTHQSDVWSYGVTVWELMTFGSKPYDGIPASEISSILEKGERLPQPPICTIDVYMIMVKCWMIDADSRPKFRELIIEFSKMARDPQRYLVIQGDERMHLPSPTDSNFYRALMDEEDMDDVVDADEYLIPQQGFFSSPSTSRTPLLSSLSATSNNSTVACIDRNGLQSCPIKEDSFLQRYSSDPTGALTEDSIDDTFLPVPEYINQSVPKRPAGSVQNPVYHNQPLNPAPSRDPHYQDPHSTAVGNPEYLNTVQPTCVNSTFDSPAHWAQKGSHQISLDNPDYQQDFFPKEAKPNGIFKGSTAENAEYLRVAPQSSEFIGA
EGFR wildtype (WT), sequence (P00533 25-1210): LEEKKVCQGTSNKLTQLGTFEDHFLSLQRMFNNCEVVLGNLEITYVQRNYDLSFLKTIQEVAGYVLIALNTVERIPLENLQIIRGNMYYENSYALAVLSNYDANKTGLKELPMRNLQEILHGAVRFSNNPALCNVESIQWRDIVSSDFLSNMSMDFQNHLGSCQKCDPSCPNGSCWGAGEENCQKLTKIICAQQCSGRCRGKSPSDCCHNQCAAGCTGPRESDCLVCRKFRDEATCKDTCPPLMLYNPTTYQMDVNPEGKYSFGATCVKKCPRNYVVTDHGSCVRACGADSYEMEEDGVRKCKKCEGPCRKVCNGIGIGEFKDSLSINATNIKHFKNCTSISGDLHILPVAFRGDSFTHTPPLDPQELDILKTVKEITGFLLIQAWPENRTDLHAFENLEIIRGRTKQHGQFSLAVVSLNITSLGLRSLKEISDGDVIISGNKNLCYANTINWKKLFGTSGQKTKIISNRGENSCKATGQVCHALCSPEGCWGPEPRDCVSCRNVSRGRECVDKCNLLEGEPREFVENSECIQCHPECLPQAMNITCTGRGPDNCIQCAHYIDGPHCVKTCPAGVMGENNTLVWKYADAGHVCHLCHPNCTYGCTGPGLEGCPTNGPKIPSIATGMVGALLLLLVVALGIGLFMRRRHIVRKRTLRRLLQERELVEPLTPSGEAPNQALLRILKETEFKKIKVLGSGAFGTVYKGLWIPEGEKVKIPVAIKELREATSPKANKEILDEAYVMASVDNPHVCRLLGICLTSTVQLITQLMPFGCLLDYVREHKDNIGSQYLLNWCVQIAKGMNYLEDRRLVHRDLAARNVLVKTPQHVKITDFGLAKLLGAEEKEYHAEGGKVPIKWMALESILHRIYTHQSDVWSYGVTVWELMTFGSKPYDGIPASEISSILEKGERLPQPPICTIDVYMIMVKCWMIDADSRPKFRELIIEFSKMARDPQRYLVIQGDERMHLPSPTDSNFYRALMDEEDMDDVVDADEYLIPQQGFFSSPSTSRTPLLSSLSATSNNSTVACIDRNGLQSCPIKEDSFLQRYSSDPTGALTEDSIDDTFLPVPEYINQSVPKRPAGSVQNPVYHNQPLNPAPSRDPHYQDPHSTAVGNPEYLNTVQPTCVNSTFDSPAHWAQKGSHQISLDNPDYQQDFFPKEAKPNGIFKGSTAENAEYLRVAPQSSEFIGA
EGFR L858R/T790M/C797S, sequence (P00533 25-1210 T790M/C797S/L858R): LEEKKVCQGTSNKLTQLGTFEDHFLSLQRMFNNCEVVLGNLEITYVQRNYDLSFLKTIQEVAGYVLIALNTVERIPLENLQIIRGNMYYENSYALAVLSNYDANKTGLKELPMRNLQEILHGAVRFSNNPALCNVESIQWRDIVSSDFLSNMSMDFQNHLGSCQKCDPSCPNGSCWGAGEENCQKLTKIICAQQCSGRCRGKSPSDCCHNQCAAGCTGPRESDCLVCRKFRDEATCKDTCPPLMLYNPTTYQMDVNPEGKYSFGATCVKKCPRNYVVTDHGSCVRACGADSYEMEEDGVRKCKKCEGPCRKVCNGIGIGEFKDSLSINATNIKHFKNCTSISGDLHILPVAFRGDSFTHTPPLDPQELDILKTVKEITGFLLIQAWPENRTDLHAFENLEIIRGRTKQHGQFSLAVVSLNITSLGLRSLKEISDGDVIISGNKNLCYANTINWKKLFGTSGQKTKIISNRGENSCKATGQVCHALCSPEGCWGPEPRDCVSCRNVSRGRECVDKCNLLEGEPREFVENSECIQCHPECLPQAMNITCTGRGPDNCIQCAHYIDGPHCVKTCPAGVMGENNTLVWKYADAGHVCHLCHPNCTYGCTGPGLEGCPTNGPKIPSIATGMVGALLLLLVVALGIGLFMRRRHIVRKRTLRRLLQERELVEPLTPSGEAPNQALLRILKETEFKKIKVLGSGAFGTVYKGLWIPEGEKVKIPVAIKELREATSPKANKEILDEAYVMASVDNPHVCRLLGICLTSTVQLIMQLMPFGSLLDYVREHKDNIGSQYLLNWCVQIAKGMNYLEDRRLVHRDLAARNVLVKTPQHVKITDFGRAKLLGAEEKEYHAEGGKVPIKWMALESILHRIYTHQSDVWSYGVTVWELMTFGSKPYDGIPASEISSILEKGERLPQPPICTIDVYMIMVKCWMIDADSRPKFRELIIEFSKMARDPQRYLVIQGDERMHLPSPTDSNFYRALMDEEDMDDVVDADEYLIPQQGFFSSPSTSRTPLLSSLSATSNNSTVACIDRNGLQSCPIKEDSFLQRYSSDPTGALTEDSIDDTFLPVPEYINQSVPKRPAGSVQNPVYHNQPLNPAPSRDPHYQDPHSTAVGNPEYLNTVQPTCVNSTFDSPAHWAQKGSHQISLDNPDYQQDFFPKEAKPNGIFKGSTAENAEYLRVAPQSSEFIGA
EGFR del19/T790M/C797S, sequence (P00533 with tags, fused parts or gaps DEL746-750/T790M/C797S): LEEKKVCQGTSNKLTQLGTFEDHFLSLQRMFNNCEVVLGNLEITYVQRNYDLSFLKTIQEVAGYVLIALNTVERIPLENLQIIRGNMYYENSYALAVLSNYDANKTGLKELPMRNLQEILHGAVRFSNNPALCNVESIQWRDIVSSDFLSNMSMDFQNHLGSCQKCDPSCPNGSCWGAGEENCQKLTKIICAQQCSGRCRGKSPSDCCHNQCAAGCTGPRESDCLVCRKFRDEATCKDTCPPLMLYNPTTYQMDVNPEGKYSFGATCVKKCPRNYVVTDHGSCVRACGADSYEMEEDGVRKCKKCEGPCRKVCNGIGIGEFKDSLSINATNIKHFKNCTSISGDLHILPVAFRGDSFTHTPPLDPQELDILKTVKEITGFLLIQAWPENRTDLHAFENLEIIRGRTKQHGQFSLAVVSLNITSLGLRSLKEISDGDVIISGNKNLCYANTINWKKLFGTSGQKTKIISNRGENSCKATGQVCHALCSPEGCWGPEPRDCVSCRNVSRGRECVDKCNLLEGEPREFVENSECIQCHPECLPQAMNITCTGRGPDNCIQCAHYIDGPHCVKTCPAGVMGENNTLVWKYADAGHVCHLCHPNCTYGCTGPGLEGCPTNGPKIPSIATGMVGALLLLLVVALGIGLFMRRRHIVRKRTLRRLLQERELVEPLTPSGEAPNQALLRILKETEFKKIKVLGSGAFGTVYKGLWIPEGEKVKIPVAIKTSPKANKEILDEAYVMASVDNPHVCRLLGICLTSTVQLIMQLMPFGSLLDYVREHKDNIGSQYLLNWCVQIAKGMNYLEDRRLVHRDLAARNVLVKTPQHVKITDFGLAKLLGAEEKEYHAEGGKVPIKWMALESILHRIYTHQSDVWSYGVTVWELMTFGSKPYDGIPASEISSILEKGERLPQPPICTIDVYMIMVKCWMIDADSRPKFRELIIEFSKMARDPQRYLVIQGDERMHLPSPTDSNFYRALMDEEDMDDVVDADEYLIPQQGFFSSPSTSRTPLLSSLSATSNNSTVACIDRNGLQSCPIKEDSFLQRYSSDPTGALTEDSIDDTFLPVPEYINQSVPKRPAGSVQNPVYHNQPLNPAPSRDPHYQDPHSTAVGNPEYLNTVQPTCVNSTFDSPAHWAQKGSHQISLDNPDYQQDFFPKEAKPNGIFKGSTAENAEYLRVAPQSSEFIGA

For `CN(C)CCCn1ccc(-c2cnc(Nc3ccnc(-c4cnn(S(=O)(=O)C5CC5)c4)n3)cc2N[C@H]2CC[C@@H](NCCF)CC2)n1` [Example 301, N^2-(2-(1-(Cyclopropylsulfonyl)-1H-pyrazol-4-yl)pyrimidin-4-yl)-5-(1-(3-(dimethylamino)propyl)-1H-pyrazol-3-yl)-N^4-((1s,4s)-4-((2-fluoroethyl)amino)cyclohexyl)pyridine-2,4-diamine], the IC50 in experiment [1] (setting [6]) is 0.1 nM; in experiment [2] (setting [7]) it was 0.1 nM; in experiment [3] (setting [8]), 0.4 nM; in experiment [4] (setting [9]), 3.5 nM; in experiment [5] (setting [10]) it was 1370 nM.
In the case of `CC(C)(CO)CNc1cc(Nc2ccnc(-c3cnn(S(=O)(=O)C4CC4)c3)n2)ncc1-c1csc(C(C)(C)O)n1` [Example 90, 3-((2-((2-(1-(Cyclopropylsulfonyl)-1H-pyrazol-4-yl)pyrimidin-4-yl)amino)-5-(2-(2-hydroxypropan-2-yl)thiazol-4-yl)pyridin-4-yl)amino)-2,2-dimethylpropan-1-ol], the IC50 was 2.6 nM in experiment [1] (setting [6]); 7.1 nM in experiment [2] (setting [7]); 367 nM in experiment [3] (setting [8]); 1490 nM in experiment [4] (setting [9]); over 10000 nM in experiment [5] (setting [10]).
On the same counts, the results for `O=S(=O)(C1CC1)n1cc(-c2nccc(Nc3cc(NC4CCC(O)C4)c(-c4ccn(C(F)F)n4)cn3)n2)cn1` (stereo not shown) [Example 15, 3-((2-((2-(1-(Cyclopropylsulfonyl)-1H-pyrazol-4-yl)pyrimidin-4-yl)amino)-5-(1-(difluoromethyl)-1H-pyrazol-3-yl)pyridin-4-yl)amino)cyclopentan-1-ol] are 0.6 nM, 0.9 nM, 3.2 nM, 9.7 nM and over 10000 nM.
With `CNC[C@H]1CC[C@H](CNc2cc(Nc3ccnc(-c4cnn(S(=O)(=O)C5CC5)c4)n3)ncc2-c2ccn(C(F)F)n2)CC1` [Example 192, N^2-(2-(1-(Cyclopropylsulfonyl)-1H-pyrazol-4-yl)pyrimidin-4-yl)-5-(1-(difluoromethyl)-1H-pyrazol-3-yl)-N^4-(((1r,4r)-4-((methylamino)methyl)cyclohexyl)methyl)pyridine-2,4-diamine], the IC50 came to 0.4 nM in experiment [1] (setting [6]); 0.2 nM in experiment [1] (setting [11]); 0.2 nM in experiment [2] (setting [7]); 0.1 nM in experiment [2] (setting [12]); 0.7 nM in experiment [3] (setting [8]); 0.3 nM in experiment [3] (setting [13]). The IC50 in experiment [4] (setting [9]) turned out to be 3.7 nM; in experiment [4] (setting [14]), 0.4 nM; in experiment [5] (setting [10]), 384 nM; in experiment [5] (setting [15]), 1.1 nM.
Consider `C[C@]1(O)CC[C@@H](Nc2cc(Nc3ccnc(-c4cnn(CC(F)(F)F)c4)n3)ncc2-c2ccn(CC(F)F)n2)CC1` [Example 344, (1s,4s)-4-((5-(1-(2,2-Difluoroethyl)-1H-pyrazol-3-yl)-2-((2-(1-(2,2,2-trifluoroethyl)-1H-pyrazol-4-yl)pyrimidin-4-yl)amino)pyridin-4-yl)amino)-1-methylcyclohexan-1-ol], for which the IC50 in experiment [1] (setting [16]) is 0.4 nM; in experiment [2] (setting [17]), 0.4 nM; in experiment [3] (setting [18]), 29.5 nM; in experiment [4] (setting [19]), 0.2 nM; in experiment [5] (setting [20]), 58.6 nM.
Regarding `CC(C)Nc1cc(Nc2ccnc(-c3cnn(S(=O)(=O)C4CC4)c3)n2)ncc1-c1ccn(C(F)F)n1` [Example 144, N^2-(2-(1-(Cyclopropylsulfonyl)-1H-pyrazol-4-yl)pyrimidin-4-yl)-5-(1-(difluoromethyl)-1H-pyrazol-3-yl)-N^4-isopropylpyridine-2,4-diamine], the IC50 in experiment [1] (setting [11]) turned out to be 1.2 nM; in experiment [2] (setting [12]) it was 0.7 nM; in experiment [3] (setting [13]) it was 24 nM; in experiment [4] (setting [14]), 12.5 nM; in experiment [5] (setting [15]), 687 nM.
Turning to `O=S(=O)(C1CC1)n1cc(-c2nccc(Nc3cc(NC4CCC(CCF)CC4)c(-c4ccn(C(F)F)n4)cn3)n2)cn1` (stereo not shown) [Example 216, N^2-(2-(1-(Cyclopropylsulfonyl)-1H-pyrazol-4-yl)pyrimidin-4-yl)-5-(1-(difluoromethyl)-1H-pyrazol-3-yl)-N^4-(4-(2-fluoroethyl)cyclohexyl)pyridine-2,4-diamine], the IC50 in experiment [1] (setting [11]) stood at 25.9 nM; in experiment [2] (setting [12]), 9.1 nM; in experiment [3] (setting [13]), 119 nM; in experiment [4] (setting [14]), 26.5 nM; in experiment [5] (setting [15]), 276 nM.
On to `Cn1nc(-c2cnc(Nc3ccnc(-c4cnn(CC(F)F)c4)n3)cc2N[C@H]2CC[C@@](C)(O)CC2)cc1C(F)(F)F` [Example 331, (1s,4s)-4-((2-((2-(1-(2,2-Difluoroethyl)-1H-pyrazol-4-yl)pyrimidin-4-yl)amino)-5-(1-methyl-5-(trifluoromethyl)-1H-pyrazol-3-yl)pyridin-4-yl)amino)-1-methylcyclohexan-1-ol], for which the IC50 in experiment [1] (setting [16]) was determined as 2.3 nM; in experiment [2] (setting [17]), 2.6 nM; in experiment [3] (setting [18]) it was 11.9 nM; in experiment [4] (setting [19]), 6.8 nM; in experiment [5] (setting [20]), 142 nM.
With `Cn1ccc(-c2cnc(Nc3ccnc(-c4cnn(S(=O)(=O)C5CC5)c4)n3)cc2NCC2CCC(NCCF)CC2)n1` (stereo not shown) [Example 131, N^2-(2-(1-(Cyclopropylsulfonyl)-1H-pyrazol-4-yl)pyrimidin-4-yl)-N^4-((4-((2-fluoroethyl)amino)cyclohexyl)methyl)-5-(1-methyl-1H-pyrazol-3-yl)pyridine-2,4-diamine], the IC50 in experiment [1] (setting [6]) is 0.3 nM; in experiment [1] (setting [11]), 0.2 nM; in experiment [2] (setting [7]), 0.3 nM; in experiment [2] (setting [12]) it was 0.1 nM; in experiment [3] (setting [8]) it was 0.5 nM; in experiment [3] (setting [13]) it was 0.2 nM. The IC50 amounted to 1.1 nM in experiment [4] (setting [9]), 0.4 nM in experiment [4] (setting [14]), 1540 nM in experiment [5] (setting [10]) and 2.8 nM in experiment [5] (setting [15]).
Take `Cc1nn(CC(F)(F)F)cc1-c1nccc(Nc2cc(N[C@H]3CC[C@@H](CCO)CC3)c(-c3ccn(C(F)F)n3)cn2)n1` [Example 326, 2-((1s,4s)-4-((5-(1-(Difluoromethyl)-1H-pyrazol-3-yl)-2-((2-(3-methyl-1-(2,2,2-trifluoroethyl)-1H-pyrazol-4-yl)pyrimidin-4-yl)amino)pyridin-4-yl)amino)cyclohexyl)ethan-1-ol]: the IC50 in experiment [1] (setting [11]) worked out at 1.4 nM; in experiment [2] (setting [12]) it was 0.7 nM; in experiment [3] (setting [13]), 13.3 nM; in experiment [4] (setting [14]) it was 7.9 nM; in experiment [5] (setting [15]), 18.8 nM.
Consider `Cc1ncc(-c2cnc(Nc3ccnc(-c4cnn(S(=O)(=O)C5CC5)c4)n3)cc2N[C@H]2CC[C@@H](O)CC2)s1` [Example 75, (1s,4s)-4-((2-((2-(1-(Cyclopropylsulfonyl)-1H-pyrazol-4-yl)pyrimidin-4-yl)amino)-5-(2-methylthiazol-5-yl)pyridin-4-yl)amino)cyclohexan-1-ol], for which the IC50 in experiment [1] (setting [6]) is 1.1 nM; in experiment [2] (setting [7]), 16.8 nM; in experiment [3] (setting [8]), 37.1 nM; in experiment [4] (setting [9]), 173 nM; in experiment [5] (setting [10]), over 10000 nM.
Regarding `Cc1nn(CC(F)(F)F)cc1-c1cc(Nc2ncc(-c3ccn(C(F)F)n3)c(N[C@H]3CC[C@@](C)(O)CC3)n2)ccn1` [Example 368, (1s,4s)-4-((5-(1-(Difluoromethyl)-1H-pyrazol-3-yl)-2-((2-(3-methyl-1-(2,2,2-trifluoroethyl)-1H-pyrazol-4-yl)pyridin-4-yl)amino)pyrimidin-4-yl)amino)-1-methylcyclohexan-1-ol], the IC50 in experiment [1] (setting [16]) was 1.9 nM; in experiment [2] (setting [17]) it was 0.9 nM; in experiment [3] (setting [18]), 12.6 nM; in experiment [4] (setting [19]), 10.7 nM; in experiment [5] (setting [20]), 33.6 nM.
On the same counts, the results for `Cn1nc(-c2cnc(Nc3ccnc(-c4cnn(CC(F)F)c4)c3)nc2N[C@H]2CC[C@@](C)(O)CC2)cc1C(F)(F)F` [Example 361, (1s,4s)-4-((2-((2-(1-(2,2-Difluoroethyl)-1H-pyrazol-4-yl)pyridin-4-yl)amino)-5-(1-methyl-5-(trifluoromethyl)-1H-pyrazol-3-yl)pyrimidin-4-yl)amino)-1-methylcyclohexan-1-ol] are 0.5 nM, 1.1 nM, 14.2 nM, 20 nM and 685 nM.
Regarding `O=S(=O)(C1CC1)n1cc(-c2nccc(Nc3cc(N[C@H]4CC[C@@H](NCC(F)F)CC4)c(-c4ccn(C(F)F)n4)cn3)n2)cn1` [Example 23, N^2-(2-(1-(Cyclopropylsulfonyl)-1H-pyrazol-4-yl)pyrimidin-4-yl)-N^4-((1s,4s)-4-((2,2-difluoroethyl)amino)cyclohexyl)-5-(1-(difluoromethyl)-1H-pyrazol-3-yl)pyridine-2,4-diamine], the IC50 worked out at 1.3 nM in experiment [1] (setting [6]); 0.7 nM in experiment [1] (setting [11]); 1 nM in experiment [2] (setting [7]); 0.4 nM in experiment [2] (setting [12]); 0.9 nM in experiment [3] (setting [8]); 0.8 nM in experiment [3] (setting [13]). Further, the IC50 in experiment [4] (setting [9]) was 7.4 nM; in experiment [4] (setting [14]) it was 1.8 nM; in experiment [5] (setting [10]) it was over 10000 nM; in experiment [5] (setting [15]) it was 6.9 nM.
